Consider one molecule from patent US12263139B2, “Use of cannabidiol in the treatment of tuberous sclerosis complex” (Jazz Pharmaceuticals Research UK Limited, priority 2017, dated 2025).

SMILES strings stand for the structures.

For test [1], the system named is Tsc2−/− Mouse Embryonic Fibroblast (MEF) cell lines. The test can be described thus: Wound healing assay in Tsc2−/− MEFs. The class given is cell-based. As to conditions: CBD at 10 and 20 μM; FIG. 1 (A). As for the experimental part: (ii) Tsc2−/− p53−/− and Tsc2+/+p53−/− mouse embryonic fibroblast (MEF) cell lines (now referred to as Tsc2−/− and Tsc2+/+, respectively).
(§1) Tsc2−/− and Tsc2+/+ cell lines were cultured and maintained in DMEM supplemented with 10% (v/v) FBS and 1% (v/v) penicillin-streptomycin in a humidified incubator (5% CO2 at 37° C.). The AML −/− cell lines were cultured and maintained in DMEM supplemented with 15% (v/v) FBS and 1% (v/v) penicillin-streptomycin in a humidified incubator (5% CO2 at 37° C.). For hypoxia, cells were put into a Binder CB150 hypoxic chamber set at 1% 02 for the indicated time points
The stock concentration of CBD was made to 20 mM in dimethyl sulfoxide (DMSO). […] The final concentration of the DMSO in the cell culture medium was at a maximum level of 0.05% (v/v).
Cells were seeded in 60 mm plates and left to reach 100% confluency. Cells were then synchronised in 1% (v/v) FBS DMEM for 24 h and “wounded” with a pipette tip. Dead cells were removed with PBS wash and then subsequently replaced with DMEM (10% (v/v) FBS). Cells were pre-treated for 30 min with either rapamycin, c-MET or STAT3 inhibitors (where indicated) before cytokine stimulation. Pictures were taken before treatment and 12-18 h after treatment using an inverted AMG EVOS microscope equipped with an Olympus camera.

For a further test, the system named is AML 621-101 cells. The test can be described thus: Transwell cell migration assay in AML 621-101 cells. The class given is cell-based. As for the experimental part: (i) Angiomyolipomas (AML) cells derived from a Tuberous Sclerosis Complex patient (621-101 cell-line), with a known loss of function of TSC2. […] Zeocin™ was purchased from LifeTechnologies (cat no: R25001) and was used to originally generate the stable cell line (by Prof. Lisa Henske) over two weeks of Zeocin™ selection and then for continued maintenance of the cells in tissue culture (at 100 μg/ml).
as §1
The stock concentration of CBD was made to 20 mM in dimethyl sulfoxide (DMSO). […]
Transwell permeable supports with 6.5 mm diameter inserts, 8.0 μm pore size, and a polycarbonate membrane were used to perform migration assays. […] Cells were counted using a haemocytometer. […] The percentage of adherent cells was then determined by fixing the cells with methanol and acetone (1:1) for 20 minutes at 20° C. […] Crystal Violet stained cells were eluted with 1% (w/v) SDS and the absorbance was read at 550 nm on a Genova MK3 Lifescience.

The test system of test [2] is mTORC1 signalling (rpS6 phosphorylation). As to the kind of experiment: Western blot of rpS6 phosphorylation (mTORC1 signalling) in Tsc2−/− MEFs. The conditions noted are these: CBD at 5 μM, 6 h of treatment. The class given is cell-based, mouse. Here is the method: (§2) Cells were washed in Phosphate Buffered Saline (PBS) and then lysed directly in sample buffer (62.5 mM Tris HCL, 50 mM DTT, 2% SDS (w/v), 10% Glycerol (w/v), 0.1% Bromophenol blue (w/v) pH 7.6) and sonicated for 5×20 s cycles on full power (30 amplitude microns). Samples were boiled at 95° C. for 10 min. Lysates were resolved by SDS-PAGE and proteins were transferred to polyvinylidene difluoride membranes.
Membranes were blocked in 5% (w/v) dry milk powder dissolved in Tris-buffered saline containing 0.1% (v/v) Tween, then probed with primary antibody and horse radish peroxidase-conjugated secondary antibody. Proteins were visualized using Enhanced Chemiluminescent solution and Hyperfilm. Antibodies towards ribosomal protein S6 (rpS6), phospho-rpS6 (Ser235/236) were purchased from Cell Signaling Technology. Anti-HIF-1α was obtained from BD transduction laboratories. Statistical Analysis
Western blotting was carried out to determine whether CBD could impair mTORC1 signalling (using rpS6 phosphorylation as a readout of mTORC1 signalling).

In a further test the test system is HIF-1α protein. As to the kind of experiment: Western blot of hypoxia induced HIF-1α in AML 621-101. It is filed as cell-based. As to conditions: CBD at 10 μM. Here is the method: as §1, §2
Membranes were blocked in 5% (w/v) dry milk powder dissolved in Tris-buffered saline containing 0.1% (v/v) Tween, then probed with primary antibody and horse radish peroxidase-conjugated secondary antibody. Proteins were visualized using Enhanced Chemiluminescent solution and Hyperfilm. Antibodies towards ribosomal protein S6 (rpS6), phospho-rpS6 (Ser235/236) were purchased from Cell Signaling Technology. Anti-HIF-1α was obtained from BD transduction laboratories. Statistical Analysis […]
On the technique in general: Immunoblotting shows a protein as a band on a membrane.

The test system of the next test is Panc-1 cells. As to the kind of experiment: MTT cell viability assay in Panc-1. The class given is cell-based. The conditions noted are these: Homo sapiens, 50 μM CBD, 72 h, FIG. 6A, read-out: growth inhibition. As for the experimental part:
PANC-1 is a human pancreatic carcinoma, epithelial-like cell line; PANC-1 cells are used as an in vitro model of non-endocrine pancreatic cancer for tumorigenicity studies.
(§3) Cell viability was analyzed by the MTT [3-(4,5-dimethylthiazol-2-yl)-2,5-diphenyl tetrazolium bromide] assay. Pancreatic cancer cells were seeded onto each well of a 96-well plate. After 72 h of treatment with CBD, MTT solution 5 mg/ml in PBS was added to each well. The plates were then incubated at 37° C. for an additional 4 h to allow MTT to form formazan crystals by reacting with metabolically active cells. The formazan crystals were solubilized in a 1N isopropanol/HCl 10% solution at 37° C., on a shaking table for 20 min. The absorbance values of the solution in each well were measured at 570 nm using a microplate reader. Cell viability was determined by the formula: cell viability (%)=(absorbance of the treated wells−absorbance of the blank control wells)/(absorbance of the negative control wells−absorbance of the blank control wells)×100%. All MTT experiments were performed in triplicate and repeated at least three times.
The growth inhibition induced by different concentrations (0.04-50 μM) of CBD on human Panc-1 at 72 h from the beginning of the treatment was evaluated with MTT assay.
(In general: Formazan colour is commonly taken as a measure of viable cells.)

The next test deals with Miapaca cells. As to the kind of experiment: MTT cell viability assay in Miapaca. As to conditions: Homo sapiens, MIA PaCa-2, 72 h, FIG. 6B, read-out: concentration at which 50% growth inhibition was reached. The class given is cell-based. As for the experimental part:
MIAPACA is a Homo sapiens pancreas carcinoma. This is a hypotriploid human cell line.
as §3

As for `C=C(C)[C@@H]1CCC(C)=C[C@H]1c1c(O)cc(CCCCC)cc1O` [CBD, Cannabidiol], in test [1], the “block of wound closure” value is “as effective as rapamycin”. For the same molecule, in the test on AML 621-101 cells (10 μM CBD), the “cell migration compared with rapamycin” value is “reduced cell migration to a significantly greater extent than rapamycin”. Moreover, in the test with AML 621-101 cells (CBD at both 5 μM and 10 μM), the cell migration entry is “significantly block”. Besides, the rpS6 phosphorylation result in test [2] was “inhibited rpS6 phosphorylation”. For the same molecule, the “hypoxia induced expression of HIF-1α protein” value in the test on HIF-1α protein is recorded as “sufficient to block hypoxia induced expression of HIF-1α protein”. The inhibition – broadly, how much of the control response was suppressed – at 50 µM in the test with Panc-1 cells was 41%. In addition, the IC50 in the test on Miapaca cells amounted to 15 µM.
